Reference: patent US11999782B2, “Therapeutic agents for the treatment of diseases associated with undesired cell proliferation” (Fundació Privada Institutció Catalana de Recerca I Estudis …, priority 2009, dated 2024)

Assays:
[1] = test system: LIF expression in GBM neurospheres; test: LIF mRNA by qRT-PCR in GBM neurospheres; type: cell-based, human; conditions: 3 hours; for LIF transcript in neurospheres derived from patients: 100 pM, medium without serum
Method: FIG. 3. TGFβ induces the expression of LIF in PCTC and GBM neurospheres. (A) PCTC cells of the 11 samples of the indicated GEM (GBM1-11) were treated with 100 pM TGFβ1 for 3 hours in medium without serum or left untreated, and the expression levels of LIF were determined by means of qRT-PCR. The g-actin was determined as an internal normalization control. (B) GBM neurosphere cells were treated as in A and the expression levels of LIF were determined by means of qRT-PCR as in A. (C) GBM neurospheres were incubated with 100 pM TGFβ1 and/or 2 μM TβRI inhibitor for 3 hours in medium without serum and the mRNA levels of LIF were determined by means of qRT-PCR as in A. (D) GBM1 neurospheres were incubated with 100 pM TGFβ1, TGFβ2 and TGFβ3 for 3 hours in medium without serum and the mRNA levels of LIF were determined by means of qRT-PCR as in A. (E) The levels of LIF protein secreted were determined by means of ELISA in GBM1 neurospheres after 48 hours of treatment with 100 pM TGFβ1.
(§1) The U373MG and A172 cells were a generous gift from J. Rich and D. Bigner and were cultured in DMEM with 10% fetal bovine serum (FBS). The primary culture of tumor cells (PCTC) and the GBM neurospheres were generated as described (Bruna et al., (2007) Cancer Cell 11, 147-160; Gunther et al., (2008) Oncogene. May 1; 27(20):2897-909). Briefly, the samples of tumors were processed in the 30 minutes after the surgical resection. The ground pieces of the samples of human gliomas were digested with 200 U/ml collagenase I (Sigma) and 500 U/ml of DNase I (Sigma) in PBS for 2 hours at 37° C. and with constant vigorous stirring. The suspension of individual cells was filtered through a 70 μm cell filter (BD Falcon) and washed with PBS. Finally, the cells were resuspended and subsequently cultured in DMEM with 10% FBS, for the culture of PCTCs, or in neurosphere medium in the case of the GBM neurospheres. The neurospheres of normal human neuroprogenitors were generated from human embryonic cerebral cortex tissue (12-16 weeks after the conception) collected after voluntary abortions. The samples were processed and cultured as described (Poltavtseva et al. (2002) Brain Res Dev Brain Res 134, 149-154). The neurosphere medium consists of neurobasal medium (Gibco) supplemented with B27 (Gibco), L-glutamine (Gibco), penicillin/streptomycin, and growth factors (20 ng/mL EGF and 20 ng/mL FGF-2 (Peprotech)).
qRT-PCR was performed using Taqman probes from Applied Biosystems, according to the manufacturer's recommendations. The reactions were carried out in a ABI 7000 sequence detector (Perkin Elmer) and the results were expressed as the fold change calculated by means of the DDCt method relative to the control sample or the first quantified sample. The ribosomal unit of 18S or β-actin were used as internal normalization controls.
It was decided to investigate the molecular mechanisms responsible for the effect of TGFβ on GICs. Gene responses to TGFβ in GBM cells which could be involved in the regulation of the self-renewal of GICs were investigated. In a previous work (Bruna et al., 2007), transcriptome analyses were conducted in the U373MG glioma cell line treated with TGFβ and/or a TβRI inhibitor. LIF was among the 63 gene responses to TGFβ in U373MG which were dependent on the activity of TβRI. […] A panel of PCTCs derived from 11 different human GBMs was treated with TGFβ for 3 hours and the levels of LIF mRNA were determined.

[2] = test system: normal human neuroprogenitors; test: Self-renewal assay of normal human neuroprogenitor neurospheres; type: cell-based; conditions: 100 pM TGFβ1 or 20 ng/ml LIF, 7 days
Method: FIG. 8. Effect of TGFβ on the capacity of self-renewal of normal human neuroprogenitors. (A) Immunocytochemistry of the indicated markers was performed in human neuroprogenitor neurospheres. (B) Neurospheres of the sample of GBM1 and of human neuroprogenitors were incubated with the indicated members of the 100 pM TGFβ family for 3 hours and the mRNA levels of LIF were determined. (C, D) Neurosphere cells of normal human neuroprogenitors were incubated in the same conditions that have been described above in FIG. 1D in the presence of 100 pM TGFβ1 or 20 ng/ml LIF for 7 days and the number of newly formed neurospheres (C) and the number total of cells (D) were determined.
as §1
The self-renewal of the neurospheres was evaluated by seeding an identical number of cells at a very low density in wells of a 96-well plate. The cells were treated, in the absence of growth factors, with the indicated compounds and the total number of new neurospheres formed after 7 days in culture was counted (Lee et al. (2008) Cancer Cell 13, 69-80; Reynolds and Weiss, (1996) Dev Biol 175, 1-13; Seaberg and van der Kooy, (2002) J Neurosci 22, 1784-1793).
It was decided to assess whether this effect was specific to tumor cells or was also present in normal neuroprogenitor cells. To answer this question, neuroprogenitor cells were obtained from samples of human fetal cerebral cortex (from 12 to 16 weeks after conception). As has been previously described (Carpenter et al., 1999, Exp Neurol, 158: 265-278; Poltavtseva et al., 2002, Brain Res Dev Brain Res, 134: 149-154; Wright et al., 2003, J Neurochem, 86: 179-195), human neuroprogenitors generated neurospheres when they were grown in serum-free medium supplemented with EGF and FGF and these neurospheres expressed Musashi-1, Sox2 and Nestin similarly to GBM neurospheres (FIG. 8A). First, it was determined if TGFβ induced LIF in normal human neuroprogenitors. […] In fact, the neurospheres treated with TGFβ were smaller and the total number of cells had decreased due to the presence of TGFβ (FIG. 8C, 8D). On the other hand, LIF increased the number and size of the newly formed neurospheres as well as the total number of cells (FIG. 8C, 8D) according to previous articles (Bauer and Patterson, 2006; Wright et al., 2003). Thus, LIF has the same effect on the self-renewal in GBM and normal neurospheres. On the contrary, there is a difference in the effect of TGFβ on the capacity for self-renewal of normal and tumor neurospheres due to the incapacity of TGFβ to induce LIF normal in neuroprogenitors.

NC(=O)c1ccc(-c2nc(-c3ccc4c(c3)OCO4)c(-c3ccccn3)[nH]2)cc1 [TβRI inhibitor, SB431542, reference compound]
effect on the induction of LIF by TGFβ ([1]; GBM neurospheres, 100 pM TGFβ1 with 2 μM TβRI inhibitor): blocked

LIF: recombinant leukemia inhibitory factor, an IL-6 type cytokine (Chemicon)
number of newly formed neurospheres (normal neuroprogenitors) [2]: increased
size of neurospheres (normal neuroprogenitors) [2]: increased
total number of cells (normal neuroprogenitors) [2]: increased

TGFβ: TGFβ1 (R&D Systems), used at 100 pM according to the figure legends
LIF transcript in neurospheres derived from patients [1]: capable of inducing the LIF transcript
LIF transcript in neurospheres derived from patients ([1]; listed as TGFβ1): capable of inducing LIF
number of newly formed neurospheres (normal neuroprogenitors) [2]: did not increase
size of neurospheres (normal neuroprogenitors) [2]: smaller
total number of cells (normal neuroprogenitors) [2]: decreased
